# Laboratory results reported in patent publication US20150045312A1, “Use of Compounds Elevating Glutathione Levels for the Treatment of Autism, Autistic Spectrum Disorders and Fragile X Syndrome” (Promentis Pharmaceuticals, Inc., priority 2013, published 2015).
# Assays:
# system xc− = target: T1, system xc− (Homo sapiens, UniProt Q9UPY5); assay: in vitro screening assay in human glial cells from brain astrocytoma (1321N1); type: cell-based; details: 1321N1 cells, high system xc− expression
# T1 construct: a cell line with high system xc− expression; endogenous in cells; host or cells: 1321N1 human astrocytoma cells
# T1 sequence (Q9UPY5 1-501): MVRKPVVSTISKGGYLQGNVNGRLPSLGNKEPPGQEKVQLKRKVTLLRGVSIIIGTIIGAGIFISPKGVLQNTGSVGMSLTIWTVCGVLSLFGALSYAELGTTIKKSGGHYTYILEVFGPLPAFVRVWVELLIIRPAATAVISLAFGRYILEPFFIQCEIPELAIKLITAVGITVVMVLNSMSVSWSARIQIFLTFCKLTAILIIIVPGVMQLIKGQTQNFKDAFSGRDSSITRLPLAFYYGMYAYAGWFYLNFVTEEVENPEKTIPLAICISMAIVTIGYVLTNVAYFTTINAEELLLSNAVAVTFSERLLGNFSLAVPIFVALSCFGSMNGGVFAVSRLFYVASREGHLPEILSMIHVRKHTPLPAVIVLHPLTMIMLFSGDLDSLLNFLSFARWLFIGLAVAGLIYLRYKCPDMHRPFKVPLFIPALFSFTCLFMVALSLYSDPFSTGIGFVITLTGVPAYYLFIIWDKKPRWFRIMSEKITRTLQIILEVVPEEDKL
# T1 sequence (P08195 1-529 partner): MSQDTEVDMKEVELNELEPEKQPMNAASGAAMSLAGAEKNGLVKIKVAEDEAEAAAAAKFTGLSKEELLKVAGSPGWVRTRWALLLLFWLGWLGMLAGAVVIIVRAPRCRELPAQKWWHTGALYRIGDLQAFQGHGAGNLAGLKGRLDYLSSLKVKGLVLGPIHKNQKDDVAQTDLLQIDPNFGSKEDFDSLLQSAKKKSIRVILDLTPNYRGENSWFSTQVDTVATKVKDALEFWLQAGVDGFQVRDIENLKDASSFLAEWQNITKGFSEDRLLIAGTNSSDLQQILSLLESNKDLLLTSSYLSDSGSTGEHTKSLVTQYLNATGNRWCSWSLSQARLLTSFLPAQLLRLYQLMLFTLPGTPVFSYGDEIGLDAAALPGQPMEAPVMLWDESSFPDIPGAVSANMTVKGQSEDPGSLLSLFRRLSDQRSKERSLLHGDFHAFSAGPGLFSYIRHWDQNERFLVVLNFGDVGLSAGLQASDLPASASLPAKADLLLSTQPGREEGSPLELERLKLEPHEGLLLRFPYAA
# From the text: Using an in vitro screening assay conducted in human glial cells from brain astrocytoma (1321N1), a cell line with high system xc− expression, the compound with the following formula: […]
# Using an in vitro screening assay conducted in human glial cells from brain astrocytoma (1321N1), a cell line with high System xc− expression, the compound with the following formula: […]
# [1] = pre-pulse inhibition (PPI) efficacy model of neuropsychiatric disease activity; type: in vivo
# [2] = elevated plus maze (EPM) efficacy model of neuropsychiatric disease activity; type: in vivo; details: orally-active
# [3] = schizophrenia, bipolar disorder, obsessive-compulsive disorder, autism; cited from earlier work
# [4] = autistic patients, added to risperidone treatment; cited from earlier work
# [5] = in vivo; cited from earlier work
# [6] = cited from earlier work
smiles,measurement,setting,value
O=C(Cc1ccccc1)N[C@@H](CSC(c1ccccc1)(c1ccccc1)c1ccccc1)C(=O)O [drawing 15],3H-glutamate,system xc−,significant elevations
same,uptake of 14C-cystine,system xc−,robust and significant decrease
O=C(Cc1ccccc1)N[C@@H](CSC(c1ccccc1)(c1ccccc1)c1ccccc1)C(=O)O [drawing 16],response in PPI model compared with clozapine,"[1]; at a comparable dose range, similar to clozapine",antipsychotic-like response
same,behavioral effects in PPI model,[1]; orally-active,significant behavioral effects
same,behavioral effects in EPM model,[2],significant behavioral effects
"CC(=O)N[C@@H](CS)C(=O)O [NAC, N-acetyl cysteine]",symptoms of mental disorders,[3],modestly improve symptoms
same,irritability versus risperidone+placebo,[4],significantly decrease irritability
same,entry into the CNS,[5],do not readily enter the CNS
same,solubility characteristics,[6],poor solubility characteristics
N[C@@H](CCC(=O)N[C@@H](CS)C(=O)NCC(=O)O)C(=O)O [glutathione],entry into the CNS,[5],do not readily enter the CNS
same,solubility characteristics,[6],poor solubility characteristics
